According to US20250276964A1 (Novartis AG, priority 2021, published 2025):

Biological target: T1, WIZ (Homo sapiens, UniProt O95785+Q96SW2)
T1 construct: expressed in transfected cells
Assay: Quantification of WIZ protein levels in HiBit tag fusion protein assay (WIZ HiBit assay in 293T cells)
Assay type: cell-based
Conditions: for Dmax at 25 µM / remaining activity at 25 µM: HEK-293T; for Dmax at 25 µM / % degradation of WIZ (100-Amax): 100 minus Amax at 25 uM; for Dmax at 25 µM: read-out: % degradation of WIZ (100-Amax); for remaining activity at 25 µM / WIZ Amax: DMSO-normalized, curve-fitted percentage of WIZ-HiBit remaining at 25 uM; for remaining activity at 25 µM: read-out: WIZ Amax; for DC50: WIZ HiBit assay in 293T cells, 10-point, 5-fold dilution, highest concentration 25 μM, about 18 hours, read-out: WIZ AC50
Method: The HiBit system from Promega was used to develop high-throughput and quantitative assays to measure changes in WIZ protein levels in response to compounds. The HiBit tag was derived from a split Nanoluciferase and has the following protein sequence: […] (SEQ ID NO: 1). The complementary fragment of Nanoluciferase (known as LgBit, from Promega), was added to the HiBit tag to form an active Nanoluciferase enzyme whose activity can be precisely measured. In this way, the levels of a fusion protein with the HiBit tag can be quantified in cell lysates.
Lentiviral vectors, based on the Invitrogen™ pLenti6.2/V5 DEST backbone were constructed that places the HiBit tag upstream of WIZ and expressed the fusion protein from an HSVTK promotor.
To ensure moderate and consistent expression of the HiBit-WIZ fusion protein across all cells in the population, stable cell lines were constructed from cells harboring a single copy of the construct. Lentivirus packaged with the constructs were made using the ViraPower™kit from Invitrogen™. 293T cells from ATCC (Catalog number: CRL-3216), were infected with the virus at low multiplicity of infection and selected by 5 μg/mL blasticidin in culture media for 2 weeks.
The levels of HiBit-WIZ tagged fusion proteins in compound-treated cell lines were measured as follows:
On day 1, cells were diluted to 1.0×10^6 cells/ml in normal growth medium. 20 μL of cell suspension were plated in each well of a solid white 384-well plate. Plates were incubated overnight in a 37° C. and 5% CO2 humidified tissue culture incubator.
On day 2, serial dilutions of compounds were made in 384-well plates. Compound plates were set up with DMSO in columns 1, 2, 23, 24, and 10-point compound dilution series in column 3-12 and column 13-22. 10 mM stock solution of compound were placed into column 3 or 13 and a 1:5 serial dilution was carried out until there was a 10-point dilution series per compound. 50 nL of diluted compounds were transferred into the plated cells by Echo® (Labcyte) acoustic transfer. The highest concentration of compound was 25 μM. Plates were incubated overnight (about 18 hours) in a 37° C. and 5% CO2 humidified tissue culture incubator.
On day 3, plates were removed from the incubator and allowed to equilibrate at room temperature for 60 minutes. HiBit substrate (Nano-Glo® HiBit Lytic Detection System, Promega Catalogue number: N3050) was added as described by the manufacturers protocols. Plates were incubated at room temperature for 30 minutes and luminescence was read using an EnVision® reader (PerkinElmer®). Data was analyzed and visualized using the Spotfire® software package.
WIZ Amax reflects the DMSO-normalized, curve-fitted percentage of WIZ-HiBit remaining at 25 uM. It was calculated by normalizing DMSO controls to 100%, parametric curve fitting of the dose response data (10-point, 5-fold), followed by calculation of response at 25 uM using the fitted equation (nd=not determined).

T1 sequence (O95785 whole entry): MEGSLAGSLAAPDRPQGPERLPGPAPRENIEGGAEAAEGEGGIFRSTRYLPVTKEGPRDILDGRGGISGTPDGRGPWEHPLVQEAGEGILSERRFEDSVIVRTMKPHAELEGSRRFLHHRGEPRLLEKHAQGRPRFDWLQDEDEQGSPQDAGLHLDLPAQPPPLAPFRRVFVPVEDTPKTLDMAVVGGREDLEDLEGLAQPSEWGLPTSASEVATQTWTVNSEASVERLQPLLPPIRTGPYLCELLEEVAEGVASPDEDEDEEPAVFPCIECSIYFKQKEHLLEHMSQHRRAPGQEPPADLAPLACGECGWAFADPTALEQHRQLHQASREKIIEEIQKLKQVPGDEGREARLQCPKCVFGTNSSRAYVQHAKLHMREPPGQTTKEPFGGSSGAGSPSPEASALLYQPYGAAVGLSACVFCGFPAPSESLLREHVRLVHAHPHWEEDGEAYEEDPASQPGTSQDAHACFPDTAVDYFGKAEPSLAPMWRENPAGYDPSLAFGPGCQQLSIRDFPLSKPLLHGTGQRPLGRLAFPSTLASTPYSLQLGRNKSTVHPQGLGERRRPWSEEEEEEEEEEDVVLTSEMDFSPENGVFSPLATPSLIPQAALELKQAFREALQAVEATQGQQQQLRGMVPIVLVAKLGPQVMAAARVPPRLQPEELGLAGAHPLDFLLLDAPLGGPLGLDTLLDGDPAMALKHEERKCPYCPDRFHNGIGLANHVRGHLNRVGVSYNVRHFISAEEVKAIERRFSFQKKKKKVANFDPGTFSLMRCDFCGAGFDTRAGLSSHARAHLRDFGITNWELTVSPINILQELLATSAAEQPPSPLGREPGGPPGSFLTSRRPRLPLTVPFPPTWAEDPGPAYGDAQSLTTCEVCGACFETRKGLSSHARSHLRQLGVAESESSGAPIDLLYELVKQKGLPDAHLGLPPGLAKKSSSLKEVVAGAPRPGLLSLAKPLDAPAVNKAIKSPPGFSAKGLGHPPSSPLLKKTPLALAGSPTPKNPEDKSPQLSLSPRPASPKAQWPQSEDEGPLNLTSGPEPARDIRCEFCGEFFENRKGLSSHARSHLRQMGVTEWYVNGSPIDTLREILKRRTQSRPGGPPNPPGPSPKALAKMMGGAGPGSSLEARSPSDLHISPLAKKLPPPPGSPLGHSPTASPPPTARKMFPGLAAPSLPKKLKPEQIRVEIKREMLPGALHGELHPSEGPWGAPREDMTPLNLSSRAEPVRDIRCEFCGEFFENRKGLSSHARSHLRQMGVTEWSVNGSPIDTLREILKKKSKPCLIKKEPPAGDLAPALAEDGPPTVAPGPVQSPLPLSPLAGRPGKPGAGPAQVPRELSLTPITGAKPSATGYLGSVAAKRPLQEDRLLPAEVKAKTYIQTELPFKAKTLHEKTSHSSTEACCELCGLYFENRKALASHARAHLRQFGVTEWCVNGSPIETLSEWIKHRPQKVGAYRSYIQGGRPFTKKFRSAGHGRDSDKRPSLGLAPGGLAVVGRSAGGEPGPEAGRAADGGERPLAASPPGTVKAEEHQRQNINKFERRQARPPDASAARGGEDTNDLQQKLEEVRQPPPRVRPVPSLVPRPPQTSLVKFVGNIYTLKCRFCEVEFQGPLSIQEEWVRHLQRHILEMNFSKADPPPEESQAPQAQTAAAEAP
T1 sequence (Q96SW2 whole entry): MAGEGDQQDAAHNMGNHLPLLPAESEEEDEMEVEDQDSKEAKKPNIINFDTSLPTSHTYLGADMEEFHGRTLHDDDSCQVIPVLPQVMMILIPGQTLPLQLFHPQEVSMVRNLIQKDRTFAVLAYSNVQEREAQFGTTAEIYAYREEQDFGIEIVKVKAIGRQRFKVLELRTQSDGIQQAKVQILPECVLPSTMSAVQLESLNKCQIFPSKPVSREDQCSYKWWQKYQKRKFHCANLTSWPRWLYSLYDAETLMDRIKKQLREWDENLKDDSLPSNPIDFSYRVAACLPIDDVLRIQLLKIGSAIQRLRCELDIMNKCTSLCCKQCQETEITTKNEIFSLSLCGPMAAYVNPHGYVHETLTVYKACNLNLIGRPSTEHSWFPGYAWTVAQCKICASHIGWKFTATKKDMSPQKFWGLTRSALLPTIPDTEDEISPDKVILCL
T1 sequence (Q16531 whole entry partner): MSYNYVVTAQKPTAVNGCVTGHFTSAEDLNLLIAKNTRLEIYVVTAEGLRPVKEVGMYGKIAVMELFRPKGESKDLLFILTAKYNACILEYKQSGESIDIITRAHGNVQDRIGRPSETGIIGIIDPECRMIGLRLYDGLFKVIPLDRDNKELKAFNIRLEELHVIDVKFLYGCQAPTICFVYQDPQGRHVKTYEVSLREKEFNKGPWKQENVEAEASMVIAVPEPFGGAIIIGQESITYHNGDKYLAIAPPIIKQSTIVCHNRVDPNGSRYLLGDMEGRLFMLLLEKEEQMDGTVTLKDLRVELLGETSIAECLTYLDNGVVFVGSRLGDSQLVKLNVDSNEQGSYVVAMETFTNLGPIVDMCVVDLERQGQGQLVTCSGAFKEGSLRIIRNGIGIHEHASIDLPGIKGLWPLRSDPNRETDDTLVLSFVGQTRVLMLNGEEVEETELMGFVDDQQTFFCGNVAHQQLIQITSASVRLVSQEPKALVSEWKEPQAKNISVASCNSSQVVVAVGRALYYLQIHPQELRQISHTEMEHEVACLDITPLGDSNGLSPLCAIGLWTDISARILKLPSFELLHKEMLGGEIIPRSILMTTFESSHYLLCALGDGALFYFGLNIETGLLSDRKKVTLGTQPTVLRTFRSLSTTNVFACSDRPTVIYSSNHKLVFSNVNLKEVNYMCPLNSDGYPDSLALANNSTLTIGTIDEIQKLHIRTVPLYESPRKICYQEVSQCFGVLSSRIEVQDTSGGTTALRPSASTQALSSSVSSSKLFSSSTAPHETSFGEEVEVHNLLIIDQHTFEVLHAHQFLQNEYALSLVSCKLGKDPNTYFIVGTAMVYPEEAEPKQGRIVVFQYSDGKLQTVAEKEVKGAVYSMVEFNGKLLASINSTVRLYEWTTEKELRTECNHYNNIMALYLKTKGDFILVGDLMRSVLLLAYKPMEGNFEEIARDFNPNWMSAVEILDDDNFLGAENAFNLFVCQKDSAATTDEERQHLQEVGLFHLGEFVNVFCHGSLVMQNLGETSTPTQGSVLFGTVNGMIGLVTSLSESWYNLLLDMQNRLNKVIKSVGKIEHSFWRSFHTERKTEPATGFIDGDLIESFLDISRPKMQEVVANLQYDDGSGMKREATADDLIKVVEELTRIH

Structure (SMILES): CN1CCCN(Cc2ccc3onc(N4CCC(=O)NC4=O)c3c2)CC1 [Example 63, 1-(5-((4-methyl-1,4-diazepan-1-yl)methyl)benzo[d]isoxazol-3-yl)dihydropyrimidine-2,4(1H,3H)-dione]
- Dmax at 25 µM: 84%
- remaining activity at 25 µM: 16%
- DC50: 0.028 µM

Structure (SMILES): CC(C)(C)OC(=O)N1CCC(Cc2ccc3onc(N4CCC(=O)NC4=O)c3c2)C1 (stereo not drawn) [Example 47, tert-butyl 3-((3-(2,4-dioxotetrahydropyrimidin-1 (2H)-yl)benzo[d]isoxazol-5-yl)methyl)pyrrolidine-1-carboxylate]
- Dmax at 25 µM: 85%
- remaining activity at 25 µM: 15%
- DC50: 0.397 µM

Structure (SMILES): CC(C)N1CCN(Cc2ccc3onc(N4CCC(=O)NC4=O)c3c2)CC1 [Example 79, 1-(5-((4-isopropylpiperazin-1-yl)methyl)benzo[d]isoxazol-3-yl)dihydropyrimidine-2,4(1H,3H)-dione]
- Dmax at 25 µM: 92%
- remaining activity at 25 µM: 8%
- DC50: 0.016 µM

Structure (SMILES): O=C1CCN(c2noc3ccc(CN4CCN(C5CC5)CC4)cc23)C(=O)N1 [Example 119, 1-(5-((4-cyclopropylpiperazin-1-yl)methyl)benzo[d]isoxazol-3-yl)dihydropyrimidine-2,4(1H,3H)-dione]
- Dmax at 25 µM: 86%
- remaining activity at 25 µM: 14%
- DC50: 0.189 µM

Structure (SMILES): O=C1CCN(c2noc3ccc(CN4C[C@H]5CC[C@@H](C4)N5)cc23)C(=O)N1 [Example 100, 1-(5-(((1R,5S)-3,8-diazabicyclo[3.2.1]octan-3-yl)methyl)benzo[d]isoxazol-3-yl)dihydropyrimidine-2,4(1H,3H)-dione]
- Dmax at 25 µM: 76%
- remaining activity at 25 µM: 24%
- DC50: 0.034 µM

Structure (SMILES): C[C@@H]1CN(CC2COC2)CCN1Cc1ccc2onc(N3CCC(=O)NC3=O)c2c1 [Example 68, (R)-1-(5-((2-methyl-4-(oxetan-3-ylmethyl)piperazin-1-yl)methyl)benzo[d]isoxazol-3-yl)dihydropyrimidine-2,4(1H,3H)-dione]
- Dmax at 25 µM: 83%
- remaining activity at 25 µM: 17%
- DC50: 0.04 µM

Structure (SMILES): C[C@@H]1CN(C)C[C@H](C)N1Cc1ccc2onc(N3CCC(=O)NC3=O)c2c1 [Example 108, 1-(5-(((2R,6S)-2,4,6-trimethylpiperazin-1-yl)methyl)benzo[d]isoxazol-3-yl)dihydropyrimidine-2,4(1H,3H)-dione]
- Dmax at 25 µM: 69%
- remaining activity at 25 µM: 31%
- DC50: 0.577 µM

Structure (SMILES): C[C@@H]1CN(CC2CCOCC2)C[C@H](C)N1Cc1ccc2onc(N3CCC(=O)NC3=O)c2c1 [Example 109, 1-(5-(((2R,6S)-2,6-dimethyl-4-((tetrahydro-2H-pyran-4-yl)methyl)piperazin-1-yl)methyl)benzo[d]isoxazol-3-yl)dihydropyrimidine-2,4(1H,3H)-dione]
- Dmax at 25 µM: 73%
- remaining activity at 25 µM: 27%
- DC50: 0.355 µM

Structure (SMILES): C[C@H]1CN(S(C)(=O)=O)[C@@H](C)CN1Cc1ccc2onc(N3CCC(=O)NC3=O)c2c1 [Example 105, 1-(5-(((2S,5S)-2,5-dimethyl-4-(methylsulfonyl)piperazin-1-yl)methyl)benzo[d]isoxazol-3-yl)dihydropyrimidine-2,4(1H,3H)-dione]
- Dmax at 25 µM: 75%
- remaining activity at 25 µM: 25%
- DC50: 0.373 µM

Structure (SMILES): CN1CCCC(Cc2ccc3onc(N4CCC(=O)NC4=O)c3c2)CC1 (stereo not drawn) [Example 53, 1-(5-((1-methylazepan-4-yl)methyl)benzo[d]isoxazol-3-yl)dihydropyrimidine-2,4(1H,3H)-dione]
- Dmax at 25 µM: 87%
- remaining activity at 25 µM: 13%
- DC50: 0.004 µM

Structure (SMILES): O=C1CCN(c2noc3ccc(CN4CC5CCC4CN5CC4CCOCC4)cc23)C(=O)N1 (single isomer, unassigned) [Example 121, 1-(5-((5-((tetrahydro-2H-pyran-4-yl)methyl)-2,5-diazabicyclo[2.2.2]octan-2-yl)methyl)benzo[d]isoxazol-3-yl)dihydropyrimidine-2,4(1H,3H)-dione]
- Dmax at 25 µM: 86%
- remaining activity at 25 µM: 14%
- DC50: 0.317 µM

Structure (SMILES): O=C1CCN(c2noc3ccc(CC4C[C@H]5CC[C@@H](C4)N5)cc23)C(=O)N1 (stereo partly drawn) [Example 57, 1-(5-(((1R,5S)-8-azabicyclo[3.2.1]octan-3-yl)methyl)benzo[d]isoxazol-3-yl)dihydropyrimidine-2,4(1H,3H)-dione]
- % degradation of WIZ (100-Amax): 80%
- WIZ Amax: 20%
- DC50: 0.649 µM

Structure (SMILES): C[C@H]1CN(Cc2ccc3onc(N4CCC(=O)NC4=O)c3c2)CCN1CC1COC1 [Example 86, (S)-1-(5-((3-methyl-4-(oxetan-3-ylmethyl)piperazin-1-yl)methyl)benzo[d]isoxazol-3-yl)dihydropyrimidine-2,4(1H,3H)-dione]
- Dmax at 25 µM: 86%
- remaining activity at 25 µM: 14%
- DC50: 0.011 µM

Structure (SMILES): CCN1CCN(Cc2ccc3onc(N4CCC(=O)NC4=O)c3c2)[C@H](C)C1 [Example 66, (R)-1-(5-((4-ethyl-2-methylpiperazin-1-yl)methyl)benzo[d]isoxazol-3-yl)dihydropyrimidine-2,4(1H,3H)-dione]
- Dmax at 25 µM: 86%
- remaining activity at 25 µM: 14%
- DC50: 0.045 µM

Structure (SMILES): CN1[C@@H]2CC[C@H]1CC(Cc1ccc3onc(N4CCC(=O)NC4=O)c3c1)C2 (stereo partly drawn) [Example 59, 1-(5-(((1R,5S)-8-methyl-8-azabicyclo[3.2.1]octan-3-yl)methyl)benzo[d]isoxazol-3-yl)dihydropyrimidine-2,4(1H,3H)-dione]
- % degradation of WIZ (100-Amax): 84%
- WIZ Amax: 16%
- DC50: 0.025 µM

Structure (SMILES): O=C1CCN(c2noc3ccc(CN4CCN5CCOC[C@H]5C4)cc23)C(=O)N1 [Example 110, (R)-1-(5-((hexahydropyrazino[2,1-c][1,4]oxazin-8(1H)-yl)methyl)benzo[d]isoxazol-3-yl)dihydropyrimidine-2,4(1H,3H)-dione]
- Dmax at 25 µM: 85%
- remaining activity at 25 µM: 15%
- DC50: 0.065 µM

Structure (SMILES): C[C@@H]1CN(C2CC2)CCN1Cc1ccc2onc(N3CCC(=O)NC3=O)c2c1 [Example 120, (R)-1-(5-((4-cyclopropyl-2-methylpiperazin-1-yl)methyl)benzo[d]isoxazol-3-yl)dihydropyrimidine-2,4(1H,3H)-dione]
- Dmax at 25 µM: 83%
- remaining activity at 25 µM: 17%
- DC50: 0.538 µM

Structure (SMILES): CC(C)CN1CCC(Cc2ccc3onc(N4CCC(=O)NC4=O)c3c2)CC1 [Example 5, 1-(5-((1-isobutylpiperidin-4-yl)methyl)benzo[d]isoxazol-3-yl)dihydropyrimidine-2,4(1H,3H)-dione]
- Dmax at 25 µM: 91%
- remaining activity at 25 µM: 9%
- DC50: 0.014 µM

Structure (SMILES): CC(C)(C)OC(=O)N1C[C@@H]2C[C@H]1CN2Cc1ccc2onc(N3CCC(=O)NC3=O)c2c1 [Example 93, tert-butyl (1S,4S)-5-((3-(2,4-dioxotetrahydropyrimidin-1(2H)-yl)benzo[d]isoxazol-5-yl)methyl)-2,5-diazabicyclo[2.2.1]heptane-2-carboxylate]
- Dmax at 25 µM: 61%
- remaining activity at 25 µM: 39%
- DC50: 2.18 µM

Structure (SMILES): CC(C)(C)OC(=O)N1CCN(Cc2ccc3onc(N4CCC(=O)NC4=O)c3c2)CC1(C)C [Example 91, tert-butyl 4-((3-(2,4-dioxotetrahydropyrimidin-1(2H)-yl)benzo[d]isoxazol-5-yl)methyl)-2,2-dimethylpiperazine-1-carboxylate]
- Dmax at 25 µM: 81%
- remaining activity at 25 µM: 19%
- DC50: 0.298 µM
